Assay results from PubChem BioAssay AID1918936 (Molecular Pharmacology Branch, DTP, NCI, 2023).

Tested on: 349418-098-R-PDC complex spheroid viability
Test: Anticancer human tumor 349418-098-R-PDC patient-derived lung adenocarcinoma cell line growth inhibition
Details: for IC50: curve of first compound; for viability, T/C: stronger effect = lower value
Method in brief: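 Multicellular complex spheroids of tumor cells with human endothelial cells (HUVEC) and mesenchymal stem cells; the LSD1 inhibitor iadademstat was combined with standard-of-care or investigational agents. Top concentration at or near clinical Cmax, half-log dilutions; final DMSO ≤0.25%.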

[1] = second compound 0.1 µM, first compound 0.0316 µM
[2] = second compound 0.1 µM, first compound 0.1 µM
[3] = second compound 0.1 µM, first compound 0.316 µM
[4] = second compound 0.1 µM, first compound 1 µM
[5] = second compound 0.1 µM, first compound 3.16 µM
[6] = second compound 0.1 µM, first compound 10 µM
[7] = second compound 0.316 µM, first compound 0.0316 µM
[8] = second compound 0.316 µM, first compound 0.1 µM
[9] = second compound 0.316 µM, first compound 0.316 µM
[10] = second compound 0.316 µM, first compound 1 µM
[11] = second compound 0.316 µM, first compound 3.16 µM
[12] = second compound 0.316 µM, first compound 10 µM
[13] = second compound 1 µM, first compound 0.0316 µM
[14] = second compound 1 µM, first compound 0.1 µM
[15] = second compound 1 µM, first compound 0.316 µM
[16] = second compound 1 µM, first compound 1 µM
[17] = second compound 1 µM, first compound 3.16 µM
[18] = second compound 1 µM, first compound 10 µM
[19] = second compound 3.16 µM, first compound 0.0316 µM
[20] = second compound 3.16 µM, first compound 0.1 µM
[21] = second compound 3.16 µM, first compound 0.316 µM
[22] = second compound 3.16 µM, first compound 1 µM
[23] = second compound 3.16 µM, first compound 3.16 µM
[24] = second compound 3.16 µM, first compound 10 µM
[25] = second compound 10 µM, first compound 0.0316 µM
[26] = second compound 10 µM, first compound 0.1 µM
[27] = second compound 10 µM, first compound 0.316 µM
[28] = second compound 10 µM, first compound 1 µM
[29] = second compound 10 µM, first compound 3.16 µM
[30] = second compound 10 µM, first compound 10 µM
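Further: spheroids exposed to agents for seven days before readout.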
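Wherever viability, T/C is given: 100% = DMSO vehicle control wells.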

CC(C)c1c(-c2ccccc2)nc2c(C#N)c[nH]n2c1=O + NC1CC1c1ccc(-c2cccc(O)c2)cc1
IC50 (second compound 0.1 µM): > 10 µM | IC50 (second compound 0.316 µM): > 10 µM | IC50 (second compound 1 µM): > 10 µM | IC50 (second compound 3.16 µM): > 10 µM | IC50 (second compound 10 µM): > 10 µM | viability, T/C [1]: 126% | viability, T/C [2]: 122% | viability, T/C [3]: 119% | viability, T/C [4]: 106% | viability, T/C [5]: 111% | viability, T/C [6]: 80.7% | viability, T/C [7]: 95.6% | viability, T/C [8]: 113% | viability, T/C [9]: 118% | viability, T/C [10]: 106% | viability, T/C [11]: 98.7% | viability, T/C [12]: 81.8% | viability, T/C [13]: 114% | viability, T/C [14]: 103% | viability, T/C [15]: 120% | viability, T/C [16]: 99.2% | viability, T/C [17]: 95.7% | viability, T/C [18]: 102% | viability, T/C [19]: 104% | viability, T/C [20]: 106% | viability, T/C [21]: 111% | viability, T/C [22]: 100% | viability, T/C [23]: 104% | viability, T/C [24]: 91.2% | viability, T/C [25]: 86.1% | viability, T/C [26]: 82.4% | viability, T/C [27]: 86.7% | viability, T/C [28]: 75.3% | viability, T/C [29]: 62.5% | viability, T/C [30]: 64.8%

CC1(C)CCC(CN2CCN(c3ccc(C(=O)NS(=O)(=O)c4ccc(NCC5CCOCC5)c([N+](=O)[O-])c4)c(Oc4cnc5[nH]ccc5c4)c3)CC2)=C(c2ccc(Cl)cc2)C1 + NC1CCC(NC2CC2c2ccccc2)CC1
IC50 (second compound 0.1 µM): 4.25 µM | IC50 (second compound 0.316 µM): 4.54 µM | IC50 (second compound 1 µM): 4.3 µM | IC50 (second compound 3.16 µM): 4.55 µM | IC50 (second compound 10 µM): 4.24 µM | viability, T/C [1]: 110% | viability, T/C [2]: 110% | viability, T/C [3]: 99.3% | viability, T/C [4]: 96.3% | viability, T/C [5]: 62.5% | viability, T/C [6]: 11.8% | viability, T/C [7]: 115% | viability, T/C [8]: 105% | viability, T/C [9]: 103% | viability, T/C [10]: 103% | viability, T/C [11]: 67.9% | viability, T/C [12]: 11.7% | viability, T/C [13]: 108% | viability, T/C [14]: 111% | viability, T/C [15]: 105% | viability, T/C [16]: 96.1% | viability, T/C [17]: 64.4% | viability, T/C [18]: 10.4% | viability, T/C [19]: 103% | viability, T/C [20]: 101% | viability, T/C [21]: 104% | viability, T/C [22]: 94.1% | viability, T/C [23]: 67.7% | viability, T/C [24]: 12% | viability, T/C [25]: 62.9% | viability, T/C [26]: 81.2% | viability, T/C [27]: 91% | viability, T/C [28]: 87.4% | viability, T/C [29]: 63% | viability, T/C [30]: 11.9%
